Test results reported in US11020395B2, “Cycloalkyl substituted triazole compounds as agonists of the APJ receptor” (AMGEN INC., priority 2016, dated 2021).

Target: human APJ receptor (Homo sapiens (Human), UniProt P35414)
Assay: [35S]GTPγS binding assay on membranes from CHO cells stably expressing human APJ receptor
Format: biochemical
Details: [35S]GTPγS SPA, read-out: Activity hAPJ SPA EC50 IP
Description: [^35S]GTPγS Binding The human APJ receptor was cloned by polymerase chain reaction and the gene encoding the receptor was subcloned in pFLAG-CMV™-3 expression vector (Sigma, Saint Louis, Mo. USA) in-house at Amgen. A GTPγS binding assay was performed on membranes prepared from CHO cells stably expressing human APJ receptor. The optimum experimental conditions for the concentrations of GDP, MgCl2, and NaCl in the assay buffer were initially determined. […] Incubation was at RT for 90 min and the microplate was read using a ViewLux™ ultra HTS Microplate Imager (PerkinElmer, Inc.). All the results presented are means of several independent experiments and analyzed by non-linear regression methods using the commercially available program Prism (GraphPad, San Diego, Calif.) providing the EC50 values detailed in Table 25.

Sequence of human APJ receptor (P35414 whole entry): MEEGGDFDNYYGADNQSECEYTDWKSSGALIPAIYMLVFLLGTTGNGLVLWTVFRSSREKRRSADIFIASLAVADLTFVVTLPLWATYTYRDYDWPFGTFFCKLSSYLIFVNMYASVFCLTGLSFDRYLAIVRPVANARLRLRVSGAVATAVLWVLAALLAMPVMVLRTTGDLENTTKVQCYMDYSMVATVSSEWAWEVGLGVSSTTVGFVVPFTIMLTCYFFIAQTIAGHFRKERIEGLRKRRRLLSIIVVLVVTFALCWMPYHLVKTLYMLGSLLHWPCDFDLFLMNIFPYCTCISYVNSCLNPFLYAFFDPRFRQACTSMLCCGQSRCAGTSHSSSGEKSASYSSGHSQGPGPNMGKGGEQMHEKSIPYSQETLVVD

Row | Compound | EC50 [nM]
1 | COc1ncnc(OC)c1-n1c(NS(=O)(=O)[C@@H](C)[C@H](OC)c2ncc(Cl)cn2)nnc1[C@H]1C[C@@H](F)C1 (single isomer, unassigned) [Example 162.0, (1R,2S)-1-(5-chloropyrimidin-2-yl)-N-(4-(4,6-dimethoxypyrimidin-5-yl)-5-((1s,3R)-3-fluorocyclobutyl)-4H-1,2,4-triazol-3-yl)-1-methoxypropane-2-sulfonamide or (1R,2S)-1-(5-chloropyrimidin-2-yl)-N-(4-(4,6-dimethoxypyrimidin-5-yl)-5-((1r,3S)-3-fluorocyclobutyl)-4H-1,2,4-triazol-3-yl)-1-methoxypropane-2-sulfonamide] | 14
2 | CO[C@H](c1ncc(Cl)cn1)[C@H](C)S(=O)(=O)Nc1nnc([C@H]2C[C@H](CO)C2)n1C(C)C (single isomer, unassigned) [Example 137.0, (1R,2S)-1-(5-chloro-2-pyrimidinyl)-N-(5-(trans-3-(hydroxymethyl)cyclobutyl)-4-(2-propanyl)-4H-1,2,4-triazol-3-yl)-1-methoxy-2-propanesulfonamide or (1R,2S)-1-(5-chloro-2-pyrimidinyl)-N-(5-(cis-3-(hydroxymethyl)cyclobutyl)-4-(2-propanyl)-4H-1,2,4-triazol-3-yl)-1-methoxy-2-propanesulfonamide] | 340
3 | COc1ncnc(OC)c1-n1c(NS(=O)(=O)[C@@H](C)[C@H](OC)c2ncc(C)cn2)nnc1C1CC2(CC2)C1 [Example 201.0] | 11
4 | COc1ncnc(OC)c1-n1c(NS(=O)(=O)[C@@H](C)[C@H](C)c2ncc(F)cn2)nnc1C1CCC1 [Example 84.0, (2S,3R)-N-(5-cyclobutyl-4-(4,6-dimethoxy-5-pyrimidinyl)-4H-1,2,4-triazol-3-yl)-3-(5-fluoro-2-pyrimidinyl)-2-butanesulfonamide] | 10.8
5 | COc1ncnc(OC)c1-n1c(NS(=O)(=O)[C@@H](C)[C@H](OC)c2ncc(Cl)cn2)nnc1C1CC1 [Example 24.0, (1R,2S)-1-(5-chloropyrimidin-2-yl)-N-(5-cyclopropyl-4-(4,6-dimethoxypyrimidin-5-yl)-4H-1,2,4-triazol-3-yl)-1-methoxypropane-2-sulfonamide] | 11
6 | COc1ncnc(OC)c1-n1c(NS(=O)(=O)[C@@H](C)[C@H](OC)c2ncc(Cl)cn2)nnc1[C@H]1CC[C@H]1C (single isomer, unassigned) [Example 188.0, (1R,2S)-1-(5-chloropyrimidin-2-yl)-N-(4-(4,6-dimethoxypyrimidin-5-yl)-5-((1S,2R)-2-methylcyclobutyl)-4H-1,2,4-triazol-3-yl)-1-methoxypropane-2-sulfonamide or (1R,2S)-1-(5-chloropyrimidin-2-yl)-N-(4-(4,6-dimethoxypyrimidin-5-yl)-5-((1R,2S)-2-methylcyclobutyl)-4H-1,2,4-triazol-3-yl)-1-methoxypropane-2-sulfonamide] | 14
7 | COc1cccc(OC)c1-n1c(NS(=O)(=O)[C@@H](C)[C@H](OC)c2ncc(Cl)cn2)nnc1[C@H]1C[C@@H](CO)C1 (single isomer, unassigned) [Example 123.0, (1R,2S)-1-(5-chloro-2-pyrimidinyl)-N-(4-(2,6-dimethoxyphenyl)-5-(cis-3-(hydroxymethyl)cyclobutyl)-4H-1,2,4-triazol-3-yl)-1-methoxy-2-propanesulfonamide or (1R,2S)-1-(5-chloro-2-pyrimidinyl)-N-(4-(2,6-dimethoxyphenyl)-5-(trans-3-(hydroxymethyl)cyclobutyl)-4H-1,2,4-triazol-3-yl)-1-methoxy-2-propanesulfonamide] | 5.1
8 | (2S,3R)-3-(5-chloropyrimidin-2-yl)-N-(5-((R)-2,2-difluorocyclopropyl)-4-(2,6-dimethoxyphenyl)-4H-1,2,4-triazol-3-yl)butane-2-sulfonamide or (2S,3R)-3-(5-chloropyrimidin-2-yl)-N-(5-((S)-2,2-difluorocyclopropyl)-4-(2,6-dimethoxyphenyl)-4H-1,2,4-triazol-3-yl)butane-2-sulfonamide [Example 220.0] | 39
9 | COc1cccc(OC)c1-n1c(NS(=O)(=O)[C@@H](C)[C@@H](OC(C)C)c2ncc(C)cn2)nnc1[C@H]1C[C@@](C)(O)C1 (single isomer, unassigned) [Example 231.0, (1S,2S)-N-(4-(2,6-dimethoxyphenyl)-5-(trans-3-hydroxy-3-methylcyclobutyl)-4H-1,2,4-triazol-3-yl)-1-(5-methyl-2-pyrimidinyl)-1-(2-propanyloxy)-2-propanesulfonamide or (1S,2S)-N-(4-(2,6-dimethoxyphenyl)-5-(cis-3-hydroxy-3-methylcyclobutyl)-4H-1,2,4-triazol-3-yl)-1-(5-methyl-2-pyrimidinyl)-1-(2-propanyloxy)-2-propanesulfonamide] | 220
10 | COCC1(n2c(NS(=O)(=O)[C@@H](C)[C@H](OC)c3ncc(Cl)cn3)nnc2C2CCC2)CC1 [Example 96.0] | 30
11 | COc1cccc(OC)c1-n1c(NS(=O)(=O)[C@@H](C)[C@H](OC)c2ncc(Cl)cn2)nnc1C1CCC1 [Example 93.0, (1R,2S)-1-(5-chloropyrimidin-2-yl)-N-(5-cyclobutyl-4-(2,6-dimethoxyphenyl)-4H-1,2,4-triazol-3-yl)-1-methoxypropane-2-sulfonamide] | 0.91
12 | COc1cccc(OC)c1-n1c(NS(=O)(=O)[C@@H](C)[C@@H](OC(C)C)c2ncc(C)cn2)nnc1[C@@H]1CCC[C@@H]1OC (single isomer, unassigned) [Example 234.0] | 12
13 | COc1ncnc(OC)c1-n1c(NS(=O)(=O)[C@@H](C)[C@H](OC)c2ncc(Cl)cn2)nnc1[C@H]1C[C@]2(CC2(F)F)C1 (single isomer, unassigned) [Example 205.0, (1R,2S)-1-(5-chloropyrimidin-2-yl)-N-(5-((3R,5s)-1,1-difluorospiro[2.3]hexan-5-yl)-4-(4,6-dimethoxypyrimidin-5-yl)-4H-1,2,4-triazol-3-yl)-1-methoxypropane-2-sulfonamide or (1R,2S)-1-(5-chloropyrimidin-2-yl)-N-(5-((3S,5r)-1,1-difluorospiro[2.3]hexan-5-yl)-4-(4,6-dimethoxypyrimidin-5-yl)-4H-1,2,4-triazol-3-yl)-1-methoxypropane-2-sulfonamide] | 5.5
14 | COc1ncnc(OC)c1-n1c(NS(=O)(=O)[C@@H](C)[C@H](OC)c2ncc(Cl)cn2)nnc1[C@H]1CC1(F)F (single isomer, unassigned) [Example 101.0, (1R,2S)-1-(5-chloropyrimidin-2-yl)-N-(5-((R)-2,2-difluorocyclopropyl)-4-(4,6-dimethoxypyrimidin-5-yl)-4H-1,2,4-triazol-3-yl)-1-methoxypropane-2-sulfonamide or (1R,2S)-1-(5-chloropyrimidin-2-yl)-N-(5-((S)-2,2-difluorocyclopropyl)-4-(4,6-dimethoxypyrimidin-5-yl)-4H-1,2,4-triazol-3-yl)-1-methoxypropane-2-sulfonamide] | 60
